Patent US20240025906A1 (NEURON23, INC., priority 2022, published 2024)
Like-named read-outs stand apart in the source and are kept apart here.

How the values were obtained:
[1] = system: JAK1/TYK2 pSTAT5 (Tyr694/699) in THP-1 cell line; test: IFNa-stimulated JAK1/TYK2 pSTAT5 (Tyr694/699) inhibition cellular assay, AlphaLISA; type: cell-based; settings: Homo sapiens, THP-1 cells, AlphaLISA (Assay B)
In short: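 Compound dilutions were dispensed first, and HBSS-suspended THP-1 cells were added on top (final top concentration 10000 nM, 6-fold series). After 1 h at 37 °C, IFNa (100 ng/mL as added) was applied for 30 min. Cells were then lysed and pSTAT5 was quantified by AlphaLISA.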

TYK2 JH2 = target: T1, TYK2 JH2 (Homo sapiens, UniProt P29597); test: TYK2 JH2 binding assay (KINOMEscan KdELECT competitive binding); settings: TYK2 JH2 domain
T1 construct: purchased DiscoverX (KINOMEscan KdELECT service); host or cells: E. coli BL21-derived (T7 phage display) or HEK-293
T1 sequence (P29597 589-875 limits assumed): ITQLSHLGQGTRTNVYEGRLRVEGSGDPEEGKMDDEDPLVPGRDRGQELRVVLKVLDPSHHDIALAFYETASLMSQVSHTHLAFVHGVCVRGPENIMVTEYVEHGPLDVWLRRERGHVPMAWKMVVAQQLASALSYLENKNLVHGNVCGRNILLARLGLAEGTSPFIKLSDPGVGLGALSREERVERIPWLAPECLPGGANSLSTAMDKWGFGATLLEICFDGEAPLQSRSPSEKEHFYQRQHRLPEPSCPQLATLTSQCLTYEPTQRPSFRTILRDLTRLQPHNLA
In short: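 Kd values come from qPCR measurement of kinase retained on an immobilized-ligand resin after 1 h room-temperature competition with compound in an 11-point, 3-fold series.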

[2] = IFNa-stimulated, read-out: Cellular_THP1_IFNa-pSTATS_TYK2
[3] = KINOMEscan KdELECT (Assay A), read-out: Biochemical TYK2_DiscoverX_JH2_BND_Kd
[4] = DiscoverX KINOMEscan KdELECT (Assay A), read-out: Biochemical TYK2_DiscoverX_JH2_BND_Kd
[5] = IFNa-stimulated, read-out: Cellular THP1_IFNa-pSTATS_IC50
[6] = KINOMEscan KdELECT (Assay A), read-out: Biochemical TYK2_JH2_Kd

Row | SMILES | IC50 [1, 2] [nM] | Kd (TYK2 JH2; [3]) [nM] | Kd (TYK2 JH2; [4]) [nM] | other results
1 | CNc1ncc(/C=C/c2ccc3c(c2)OC[C@@H](COC)O3)c2cc(NC(=O)C3CC3)ncc12 (single isomer, unassigned) [Example 791] | ≤ 500 | ≤ 100 | – | –
2 | CNc1ncc(-c2nc3ccc(N4CCO[C@@H](C)C4)cn3n2)c2cc(NC(=O)[C@@H]3C[C@@H]3C(F)(F)F)ncc12 (single isomer, unassigned) [Example 542] | ≤ 500 | – | ≤ 100 | –
3 | CNc1ncc(-c2ccc(COc3ccncc3)cc2)c2cc(NC(=O)C3CC3)ncc12 [Example 868, N-(8-(methylamino)-5-(4-((pyridin-4-yloxy)methyl)phenyl)-2,7-naphthyridin-3-yl)cyclopropanecarboxamide] | ≤ 500 | ≤ 100 | – | –
4 | CNc1ncc(-c2nc3ccc(N4CCO[C@@H](C)C4)cn3n2)c2cc(NC(=O)C3(F)CC3)ncc12 [Example 540, (S)-1-fluoro-N-(8-(methylamino)-5-(6-(2-methylmorpholino)-[1,2,4]triazolo[1,5-a]pyridin-2-yl)-2,7-naphthyridin-3-yl)cyclopropane-1-carboxamide] | ≤ 500 | – | ≤ 100 | –
5 | CNc1ncc(-c2nc3cc(O[C@H]4C[C@H](COC)C4)ccc3o2)c2cc(NC(=O)C3CC3)ncc12 [Example 348, N-(5-(5-((1r,3r)-3-(methoxymethyl)cyclobutoxy)benzo[d]oxazol-2-yl)-8-(methylamino)-2,7-naphthyridin-3-yl)cyclopropanecarboxamide] | ≤ 500 | – | ≤ 100 | –
6 | CNc1ncc(C#CC(=O)C2CC2)c2cc(NC(=O)C3CC3)ncc12 [Example 127, N-(5-(3-cyclopropyl-3-oxoprop-1-yn-1-yl)-8-(methylamino)-2,7-naphthyridin-3-yl)cyclopropanecarboxamide] | – | – | – | IC50 [1, 5]: > 500 nM; Kd (TYK2 JH2; [6]): ≤ 100 nM
7 | CNc1ncc(-c2nc3cc(F)c(N4CCOC(C)C4)cn3n2)c2cc(NC(=O)C3CC3)ncc12 (stereo not drawn) [Example 499, N-(5-(7-fluoro-6-(2-methylmorpholino)-[1,2,4]triazolo[1,5-a]pyridin-2-yl)-8-(methylamino)-2,7-naphthyridin-3-yl)cyclopropanecarboxamide] | ≤ 500 | – | ≤ 100 | –
8 | CNc1ncc(-c2nc3ccccn3n2)c2cc(Nc3ccccn3)ncc12 [Example 557, 4-([1,2,4]triazolo[1,5-a]pyridin-2-yl)-N^1-methyl-N^6-(pyridin-2-yl)-2,7-naphthyridine-1,6-diamine] | ≤ 500 | – | ≤ 100 | –
9 | CNc1ncc(-c2ccccc2C#N)c2cc(NC(=O)C3CC3)ncc12 [Example 42, N-(5-(2-cyanophenyl)-8-(methylamino)-2,7-naphthyridin-3-yl)cyclopropanecarboxamide] | – | – | – | IC50 [1, 5]: > 500 nM; Kd (TYK2 JH2; [6]): 100 to 1000 nM
10 | CNc1ncc(-c2nc3cc(N4CCOCC4)ccc3o2)c2cc(Nc3ccc(C(C)(C)O)cn3)ncc12 [Example 1098] | – | ≤ 100 | – | IC50 ([1]; IFNa-stimulated pSTAT5 (Tyr694/699), read-out: Cellular_THP1_IFNa-pSTATS_TYK2): ≤ 500 nM
11 | CNc1ncc(-c2nc3cc(O[C@H]4C[C@@H](COC)C4)ccc3o2)c2cc(NC(=O)C3CC3)ncc12 [Example 347, N-(5-(5-((1s,3s)-3-(methoxymethyl)cyclobutoxy)benzo[d]oxazol-2-yl)-8-(methylamino)-2,7-naphthyridin-3-yl)cyclopropanecarboxamide] | ≤ 500 | – | ≤ 100 | –
12 | CNc1ncc(-c2cccc(-c3ncnn3C)c2)c2cc(NC(=O)C3CC3)ncc12 [Example 54, N-(5-(3-(1-methyl-1H-1,2,4-triazol-5-yl)phenyl)-8-(methylamino)-2,7-naphthyridin-3-yl)cyclopropanecarboxamide] | – | – | – | IC50 [1, 5]: > 500 nM; Kd (TYK2 JH2; [6]): ≤ 100 nM
13 | [2H]C([2H])([2H])Nc1ncc(-c2nc3ccc(N4CCO[C@@H](C)C4)cn3n2)c2cc(NC(=O)[C@H]3C[C@H]3C(F)F)ncc12 (single isomer, unassigned) [Example 574] | ≤ 500 | – | ≤ 100 | –
14 | CNc1ncc(-c2nc3cc(N4CC[C@H](OC)C4)ccc3o2)c2cc(NC(=O)C3CC3)ncc12 [Example 282, (S)-N-(5-(5-(3-methoxypyrrolidin-1-yl)benzo[d]oxazol-2-y1)-8-(methylamino)-2,7-naphthyridin-3-yl)cyclopropanecarboxamide] | ≤ 500 | – | ≤ 100 | –

Further lines, with some results ahead:

Row | IC50 [1, 2] [nM] | Kd (TYK2 JH2; [3]) [nM] | Kd (TYK2 JH2; [4]) [nM] | SMILES | other results
15 | ≤ 500 | ≤ 100 | – | CNc1ncc(C#Cc2cc3c(cn2)nnn3C)c2cc(NC(=O)C3CC3)ncc12 [Example 689, N-(5-((1-methyl-1H-[1,2,3]triazolo[4,5-c]pyridin-6-yl)ethynyl)-8-(methylamino)-2,7-naphthyridin-3-yl)cyclopropanecarboxamide] | –
16 | ≤ 500 | ≤ 100 | – | CNc1ncc(C#Cc2ccc(N3CCC3)cn2)c2cc(NC(=O)C3CC3)ncc12 [Example 726, N-(5-((5-(azetidin-1-yl)pyridin-2-yl)ethynyl)-8-(methylamino)-2,7-naphthyridin-3-yl)cyclopropanecarboxamide] | –
17 | ≤ 500 | ≤ 100 | – | CNc1ncc(C#Cc2ccc(OC3CC3)cc2)c2cc(NC(=O)C3CC3)ncc12 [Example 638, N-(5-((4-cyclopropoxyphenyl)ethynyl)-8-(methylamino)-2,7-naphthyridin-3-yl)cyclopropanecarboxamide] | –
18 | ≤ 500 | – | ≤ 100 | CNc1ncc(-c2nc3cccc(C)c3o2)c2cc(NC(=O)C3CC3)ncc12 [Example 205, N-(8-(methylamino)-5-(7-methylbenzo[d]oxazol-2-yl)-2,7-naphthyridin-3-yl)cyclopropanecarboxamide] | –
19 | ≤ 500 | – | ≤ 100 | CNc1ncc(-c2nc3cc(COC)ccc3o2)c2cc(NC(=O)C3CC3)ncc12 [Example 248, N-(5-(5-(methoxymethyl)benzo[d]oxazol-2-yl)-8-(methylamino)-2,7-naphthyridin-3-yl)cyclopropanecarboxamide] | –
20 | ≤ 500 | ≤ 100 | – | [2H]C([2H])([2H])n1ccc(C#Cc2cnc(NC)c3cnc(NC(=O)C4CC4)cc23)n1 [Example 900, N-(5-((1-(methyl-d3)-1H-pyrazol-3-yl)ethynyl)-8-(methylamino)-2,7-naphthyridin-3-yl)cyclopropanecarboxamide] | –
21 | ≤ 500 | ≤ 100 | – | CNc1ncc(C#Cc2ccccc2OC)c2cc(NC(=O)C3CC3)ncc12 [Example 630, N-(5-((2-methoxyphenyl)ethynyl)-8-(methylamino)-2,7-naphthyridin-3-yl)cyclopropanecarboxamide] | –
22 | ≤ 500 | ≤ 100 | – | CCn1c(C)nc2cc(C#Cc3cnc(NC)c4cnc(NC(=O)C5CC5)cc34)ccc21 [Example 762, N-(5-((1-ethyl-2-methyl-1H-benzo[d]imidazol-5-yl)ethynyl)-8-(methylamino)-2,7-naphthyridin-3-yl)cyclopropanecarboxamide] | –
23 | ≤ 500 | ≤ 100 | – | [2H]C([2H])([2H])Nc1ncc(C#Cc2cn(C)c(C)n2)c2cc(NC(=O)[C@H]3C[C@H]3C)ncc12 [Example 903, (1S,2R)-N-(5-((1,2-dimethyl-1H-imidazol-4-yl)ethynyl)-8-((methyl-d3)amino)-2,7-naphthyridin-3-yl)-2-methylcyclopropane-1-carboxamide] | –
24 | ≤ 500 | ≤ 100 | – | CNc1ncc(C#Cc2ccc(CN3CC(OC)C3)cc2)c2cc(NC(=O)C3CC3)ncc12 [Example 816, N-(5-((4-((3-methoxyazetidin-1-yl)methyl)phenyl)ethynyl)-8-(methylamino)-2,7-naphthyridin-3-yl)cyclopropanecarboxamide] | –
